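A five-concentration, 48-hour dose response in 96-well plates underlies each endpoint, interpolated linearly between surrounding concentrations. GI50: concentration for 50% inhibition of growth. TGI: total growth inhibition.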
How the values were obtained:
Test in all cases: inhibition of tumour cell growth, NCI panel, 48 h
HL-60(TB) leukemia = test system: HL-60(TB) leukemia
SF-539 CNS = test system: SF-539 CNS
IGROV1 ovarian = test system: IGROV1 ovarian
HCC-2998 colon = test system: HCC-2998 colon
ACHN renal = test system: ACHN renal
KM12 colon = test system: KM12 colon
MDA-MB-231 breast = test system: MDA-MB-231 breast
UACC-62 melanoma = test system: UACC-62 melanoma
SNB-19 CNS = test system: SNB-19 CNS
PC-3 prostate = test system: PC-3 prostate
SN12C renal = test system: SN12C renal
SK-OV-3 ovarian = test system: SK-OV-3 ovarian
UACC-257 melanoma = test system: UACC-257 melanoma
NCI-H522 lung = test system: NCI-H522 lung
OVCAR-5 ovarian = test system: OVCAR-5 ovarian
EKVX NSCLC = test system: EKVX NSCLC
OVCAR-4 ovarian = test system: OVCAR-4 ovarian
RXF 393 renal = test system: RXF 393 renal
BT-549 breast = test system: BT-549 breast
MCF7 breast = test system: MCF7 breast
MDA-MB-468 breast = test system: MDA-MB-468 breast
SK-MEL-5 melanoma = test system: SK-MEL-5 melanoma
A498 renal = test system: A498 renal
CAKI-1 renal = test system: CAKI-1 renal
UO-31 renal = test system: UO-31 renal
LOX IMVI melanoma = test system: LOX IMVI melanoma
COLO 205 colon = test system: COLO 205 colon
MDA-MB-435 = test system: MDA-MB-435
HOP-92 NSCLC = test system: HOP-92 NSCLC
SK-MEL-2 melanoma = test system: SK-MEL-2 melanoma
DU-145 prostate = test system: DU-145 prostate
SK-MEL-28 melanoma = test system: SK-MEL-28 melanoma
NCI-H23 lung = test system: NCI-H23 lung
NCI/ADR-RES ovarian = test system: NCI/ADR-RES ovarian
TK-10 renal = test system: TK-10 renal
OVCAR-8 ovarian = test system: OVCAR-8 ovarian
786-0 renal = test system: 786-0 renal
HOP-62 NSCLC = test system: HOP-62 NSCLC
MALME-3M melanoma = test system: MALME-3M melanoma
A549 NSCLC = test system: A549 NSCLC
SF-268 CNS = test system: SF-268 CNS
OVCAR-3 ovarian = test system: OVCAR-3 ovarian
HCT-15 colon = test system: HCT-15 colon
SF-295 CNS = test system: SF-295 CNS
HT29 colon = test system: HT29 colon
SW-620 colon = test system: SW-620 colon
NCI-H226 lung = test system: NCI-H226 lung
SNB-75 CNS = test system: SNB-75 CNS
CCRF-CEM leukemia = test system: CCRF-CEM leukemia
NCI-H460 lung = test system: NCI-H460 lung
M14 melanoma = test system: M14 melanoma
RPMI-8226 leukemia = test system: RPMI-8226 leukemia
U251 CNS = test system: U251 CNS
K-562 leukemia = test system: K-562 leukemia
MOLT-4 leukemia = test system: MOLT-4 leukemia
HCT-116 colon = test system: HCT-116 colon
SR leukemia = test system: SR leukemia
T-47D breast = test system: T-47D breast
HS 578T breast = test system: HS 578T breast

## Clc1ccc2c(N/N=C/c3c[nH]c4ccc(Br)cc34)ccnc2c1
HL-60(TB) leukemia
  GI50: 0.469 µM
  TGI: 1.92 µM
SF-539 CNS
  GI50: 1.66 µM
  TGI: 3.05 µM
IGROV1 ovarian
  GI50: 1.65 µM
  TGI: 3.08 µM
HCC-2998 colon
  GI50: 0.762 µM
  TGI: 2.06 µM
ACHN renal
  GI50: 1.66 µM
  TGI: 3.04 µM
KM12 colon
  GI50: 1.8 µM
  TGI: 3.34 µM
MDA-MB-231 breast
  GI50: 1.24 µM
  TGI: 2.56 µM
UACC-62 melanoma
  GI50: 1.66 µM
  TGI: 3.05 µM
SNB-19 CNS
  GI50: 1.54 µM
  TGI: 2.89 µM
PC-3 prostate
  GI50: 1.31 µM
  TGI: 2.76 µM
SN12C renal
  GI50: 1.75 µM
  TGI: 3.17 µM
SK-OV-3 ovarian
  GI50: 1.57 µM
  TGI: 3.03 µM
UACC-257 melanoma
  GI50: 1.58 µM
  TGI: 2.97 µM
NCI-H522 lung
  GI50: 1.79 µM
  TGI: 3.37 µM
OVCAR-5 ovarian
  GI50: 1.53 µM
  TGI: 2.88 µM
EKVX NSCLC
  GI50: 1.16 µM
  TGI: 2.4 µM
OVCAR-4 ovarian
  GI50: 1.77 µM
  TGI: 3.38 µM
RXF 393 renal
  GI50: 1.42 µM
  TGI: 2.79 µM
BT-549 breast
  GI50: 1.48 µM
  TGI: 2.84 µM
MCF7 breast
  GI50: 0.952 µM
  TGI: 2.35 µM
MDA-MB-468 breast
  GI50: 1.24 µM
  TGI: 2.57 µM
SK-MEL-5 melanoma
  GI50: 1.5 µM
  TGI: 2.83 µM
A498 renal
  GI50: 1.87 µM
  TGI: 3.38 µM
CAKI-1 renal
  GI50: 1.46 µM
  TGI: 2.8 µM
UO-31 renal
  GI50: 1.44 µM
  TGI: 2.77 µM
LOX IMVI melanoma
  GI50: 0.173 µM
  TGI: 0.33 µM
COLO 205 colon
  GI50: 0.358 µM
  TGI: 1.29 µM
MDA-MB-435
  GI50: 1.69 µM
  TGI: 3.1 µM
HOP-92 NSCLC
  GI50: 1.33 µM
  TGI: 2.74 µM
SK-MEL-2 melanoma
  GI50: 1.79 µM
  TGI: 3.25 µM
DU-145 prostate
  GI50: 0.924 µM
  TGI: 2.14 µM
SK-MEL-28 melanoma
  GI50: 1.59 µM
  TGI: 2.95 µM
NCI-H23 lung
  GI50: 1.11 µM
  TGI: 2.37 µM
NCI/ADR-RES ovarian
  GI50: 1.41 µM
  TGI: 2.84 µM
TK-10 renal
  GI50: 2.27 µM
  TGI: 3.78 µM
OVCAR-8 ovarian
  GI50: 1.8 µM
  TGI: 3.35 µM
786-0 renal
  GI50: 1.44 µM
  TGI: 2.88 µM
HOP-62 NSCLC
  GI50: 1.58 µM
  TGI: 3.1 µM
MALME-3M melanoma
  GI50: 1.6 µM
  TGI: 3.01 µM
A549 NSCLC
  GI50: 1.58 µM
  TGI: 3.06 µM
SF-268 CNS
  GI50: 1.7 µM
  TGI: 3.53 µM
OVCAR-3 ovarian
  GI50: 1.66 µM
  TGI: 3.06 µM
HCT-15 colon
  GI50: 0.182 µM
  TGI: 0.343 µM
SF-295 CNS
  GI50: 1.61 µM
  TGI: 2.99 µM

## O=C(c1ccc(O)cc1)C1[C@H](c2ccc(Br)cc2)[C@@H](c2ccccc2)NC12C(=O)Nc1ccc(Br)cc12 (some centres undefined)
HL-60(TB) leukemia
  GI50: 7.39 µM
  TGI: 16.7 µM
SF-539 CNS
  GI50: 5.34 µM
  TGI: 10 µM
HT29 colon
  GI50: 4.48 µM
  TGI: 9.48 µM
SW-620 colon
  GI50: 5.08 µM
  TGI: 10.2 µM
IGROV1 ovarian
  GI50: 3.88 µM
  TGI: 8.19 µM
NCI-H226 lung
  GI50: 4.39 µM
  TGI: 9.76 µM
HCC-2998 colon
  GI50: 4.19 µM
  TGI: 8.86 µM
ACHN renal
  GI50: 4.03 µM
  TGI: 8.21 µM
KM12 colon
  GI50: 4.5 µM
  TGI: 10.1 µM
SNB-75 CNS
  GI50: 2.12 µM
  TGI: 7.06 µM
CCRF-CEM leukemia
  GI50: 5.09 µM
  TGI: 11.6 µM
MDA-MB-231 breast
  GI50: 4.25 µM
  TGI: 8.61 µM
NCI-H460 lung
  GI50: 4.29 µM
  TGI: 8.92 µM
UACC-62 melanoma
  GI50: 4.22 µM
  TGI: 8.54 µM
SNB-19 CNS
  GI50: 5.11 µM
  TGI: 9.75 µM
PC-3 prostate
  GI50: 4.14 µM
  TGI: 9.22 µM
SN12C renal
  GI50: 4.53 µM
  TGI: 8.99 µM
SK-OV-3 ovarian
  GI50: 4.51 µM
  TGI: 9.21 µM
UACC-257 melanoma
  GI50: 4.93 µM
  TGI: 9.52 µM
NCI-H522 lung
  GI50: 4.45 µM
  TGI: 9.15 µM
OVCAR-5 ovarian
  GI50: 4.83 µM
  TGI: 9.34 µM
EKVX NSCLC
  GI50: 4.19 µM
  TGI: 9.07 µM
OVCAR-4 ovarian
  GI50: 4.82 µM
  TGI: 9.63 µM
M14 melanoma
  GI50: 4.52 µM
  TGI: 9.24 µM
RXF 393 renal
  GI50: 3.54 µM
  TGI: 8.33 µM
BT-549 breast
  GI50: 5.54 µM
  TGI: 10.4 µM
RPMI-8226 leukemia
  GI50: 5.97 µM
  TGI: 19 µM
MCF7 breast
  GI50: 3.89 µM
  TGI: 9.13 µM
MDA-MB-468 breast
  GI50: 4.58 µM
  TGI: 9.97 µM
SK-MEL-5 melanoma
  GI50: 5.63 µM
  TGI: 10.4 µM
U251 CNS
  GI50: 4.96 µM
  TGI: 9.62 µM
A498 renal
  GI50: 4.24 µM
  TGI: 8.7 µM
K-562 leukemia
  GI50: 4.72 µM
  TGI: 11.8 µM
CAKI-1 renal
  GI50: 2.28 µM
  TGI: 7.08 µM
UO-31 renal
  GI50: 2.66 µM
  TGI: 7.08 µM
MOLT-4 leukemia
  GI50: 3.39 µM
  TGI: 9.62 µM
LOX IMVI melanoma
  GI50: 4.36 µM
  TGI: 9.1 µM
COLO 205 colon
  GI50: 4.57 µM
  TGI: 9.99 µM
MDA-MB-435
  GI50: 5.81 µM
  TGI: 11.1 µM
HOP-92 NSCLC
  GI50: 4.39 µM
  TGI: 9.26 µM
SK-MEL-2 melanoma
  GI50: 4.95 µM
  TGI: 9.48 µM
DU-145 prostate
  GI50: 5.23 µM
  TGI: 10 µM
HCT-116 colon
  GI50: 4.16 µM
  TGI: 8.63 µM
SK-MEL-28 melanoma
  GI50: 5.3 µM
  TGI: 9.96 µM
NCI-H23 lung
  GI50: 4.9 µM
  TGI: 9.81 µM
TK-10 renal
  GI50: 4.44 µM
  TGI: 8.86 µM
SR leukemia
  GI50: 3.79 µM
  TGI: 9.3 µM
OVCAR-8 ovarian
  GI50: 5.06 µM
  TGI: 9.8 µM
786-0 renal
  GI50: 5.22 µM
  TGI: 9.86 µM
T-47D breast
  GI50: 3.93 µM
  TGI: 8.58 µM
HOP-62 NSCLC
  GI50: 4.81 µM
  TGI: 9.7 µM
MALME-3M melanoma
  GI50: 4.96 µM
  TGI: 9.61 µM
A549 NSCLC
  GI50: 3.59 µM
  TGI: 8.38 µM
SF-268 CNS
  GI50: 4.56 µM
  TGI: 10.2 µM
OVCAR-3 ovarian
  GI50: 5.21 µM
  TGI: 10.1 µM
HCT-15 colon
  GI50: 4.16 µM
  TGI: 9.35 µM
HS 578T breast
  GI50: 4.95 µM
  TGI: 12.9 µM
SF-295 CNS
  GI50: 4.23 µM
  TGI: 8.81 µM

From PubChem BioAssay (NCI)
